Laboratory results published in patent publication US6191288A, “Pyronin antibacterials, process and novel intermediates thereto” (Anadys Pharmaceuticals, Inc., priority 1999, dated 2001).
≈ marks a conversion by molar mass, not a printed value. Read-outs that look alike come from different tables or passages of the source.

What was measured:
E. coli RNA polymerase = E. coli RNA polymerase (Escherichia coli, UniProt P0A8T7+P0A8V2); test: In vitro transcription assay, E. coli RNA polymerase; assay type: biochemical; conditions: for Relative potency in the in vitro transcription assay using E. coli RNA polymerase: FIGS. 20a,b, comparison in words; for IC50: Table II, in vitro transcription, read-out: IC50 E. coli (source of polymerase) (converted)
Procedure: (§1) In vitro transcription reactions. [α-^32 P] UTP-incorporated RNA was synthesized in 50 μl reaction volumes containing transcription buffer (50 mM Tris-HCl, pH 8.0, 200 mM KCL, 10 mM MgCl2, 10 mM DTT and 1.5 μM BSA), […] of DNA template, 4 μM UTP containing 5 μl of [α-^32 P] UTP, 400 μM each of ATP, GTP, and CTP. After incubation for 60 minutes at 25 ° C., the reaction is terminated with 100 μl 10% TCA, which also recipitates the newly transcribed RNA.

S. aureus [1] = test: MBC, S. aureus; assay type: cell-based; conditions: Staphylococcus aureus, Table II
From the text: (§2) The minimum bactericidal concentration (MBC) is defined as the concentration of antimicrobial agent from which no colonies grow on petri plates or in the medium. In practice, the MBC is arbitrarily defined as the concentration at which a 1000-fold reduction in colony forming units is observed with respect to the original inoculum (survival of 0. 1%). The broth dilution method consists of inoculating the wells from an MIC microliter plate using a 96-well inoculation grid into a fresh microliter plate containing 100 μl. Mueller-Hinton broth per well. The MBC plates are incubated at 37° C. for 16-20 hrs and the MBC values are determined.

E. coli [2] = test: MBC, E. coli; assay type: cell-based; conditions: Escherichia coli
From the text: as §2

S. aureus RNAP = S. aureus RNAP (Staphylococcus aureus, UniProt P47768+Q2G0N5); test: In vitro transcription assay, S. aureus RNAP; assay type: biochemical
Procedure: as §1

Human RNAP = Human RNAP (Homo sapiens, UniProt P24928+P30876); test: biochemical; conditions: Table II, in vitro transcription; read-out: IC50 human pol II
Procedure: as §1

E. coli [3] = test: Microdilution MIC, E. coli; assay type: cell-based; conditions: Escherichia coli
Procedure: (§3) Different dilutions are performed for natural product extracts.

E. faecalis = test: MIC, E. faecalis; assay type: cell-based
Procedure: as §3

H. influenzae = test: MIC, H. influenzae; assay type: cell-based; conditions: Haemophilus influenzae
Procedure: as §3

K. pneumoniae = test: MIC, K. pneumoniae; assay type: cell-based; conditions: Klebsiella pneumoniae
Procedure: as §3

M. luteus = test: MIC, M. luteus; assay type: cell-based; conditions: Micrococcus luteus; M. luteus ATCC9341
Procedure: as §3

E. faecium = test: MIC, E. faecium; assay type: cell-based; conditions: E. faecium Pen-R
Procedure: as §3

E. cloacae = test: MIC, E. cloacae; assay type: cell-based; conditions: Enterobacter cloacae
Procedure: as §3

S. epidermidis = test: MIC, S. epidermidis; assay type: cell-based; conditions: Staphylococcus epidermidis, MRSE, E-R
Procedure: as §3

S. pneumonia = test: MIC, S. pneumonia; assay type: cell-based
Procedure: as §3

S. aureus [4] = test: Microdilution MIC, S. aureus; assay type: cell-based
Procedure: as §3

P. aeruginosa = test: MIC, P. aeruginosa; assay type: cell-based; conditions: Pseudomonas aeruginosa
Procedure: as §3

M. catarrhalis = test: MIC, M. catarrhalis; assay type: cell-based; conditions: Moraxella catarrhalis
Procedure: as §3

[5] = tested on: rifampicin susceptible and rifampicin resistant strains; test: microbe, parasite or virus in culture
Procedure: The MIC is reported as a range between the concentration at which no growth is observed and the concentration of the dilution which immediately followed. Selected inhibitors from the RNA polymerase screen described above were tested for their ability to inhibit bacterial growth in a broth microdilution assay as follows. […] Dilution of antimicrobial agents is performed in a sterile, covered 96-well microliter plate with flat bottom wells (Costar #9017), and each well contains 100 μL of both +/-antimicrobial agent. The final concentrations of the small molecule antimicrobial agents are 100, 50, 25, 12.5, 6.25, 3.12, 1.56, 0.78, 0.39, 0.20, 0.10, and 0.05 μg/mL, respectively. Different dilutions are performed for natural product extracts. They are first diluted 100-fold with Mueller-Hinton broth. The final dilutions of the natural product extracts are 200, 400, 800, 1600, 3200, 6400, 12800, 25600, 51200, 1×105, 2×105, and 4 ×105-fold. A 1% DMSO (no-drug) row is prepared in Mueller-Hinton broth as a control for 100% growth on each plate. A Mueller-Hinton broth only with no bacteria growth is also included as a negative control for each plate. Ampicillin and rifampicin are used as positive controls against all bacterial strains in every experiment.
The overnight culture of a single colony is diluted in sterile Mueller-Hinton broth so that, after inoculation, each well contains approximately 5×10^5 CFU/mL. Within 15 minutes of preparation, […] of the adjusted inoculum suspension is added to the microliter plate. Each well is diluted with an equal volume of the antimicrobial agent/control substance diluted with sterile Mueller-Hinton broth. The inoculated microliter plate is incubated at 35° C. for 16-20 hours. The turbidity of each well is determined by measuring the absorbance at 595 nm on the BioRad Model 3550-UV microplate reader. The rows containing broth only (no cells) serve as a control, and the rows containing the titration of 1% DMSO serve as a control for 100% growth. The average of the broth only controls is subtracted from the average of each duplicate. This value is subsequently normalized to the average of the DMSO controls.

[6] = tested on: myxopyronin-, rifampicin-, and streptolydigin-resistant S. aureus; test: Growth (optical density at 595 nm) of drug-resistant S. aureus cultured with each drug (FIG. 22); assay type: cell-based; conditions: FIG. 22, absorbance at 595 nm
Procedure: FIG. 22 is a bar graph showing the growth of bacterial cultures, measured by its optical density as measured by absorbance of light at 595 nanometers, after bacteria resistant to myxopyronins, rifampicin, and streptolydigin were cultured in the presence of each of these drugs.
The site of action of the myxopyronins on RNA polymerase was investigated by assessing the growth of myxopyronin-, rifampicin-, and streptolydigin-resistant S. aureus in the presence of the 90/10 myxopyronin A/B mixture.

[7] = rifampicin-resistant S. aureus, read-out: MBC rifR-S. aureus
[8] = Table II, read-out: MBC E. coli
[9] = read-out: MIC E. coli*, Table II, mutant strain that has permeabilized cell wall

Chain of E. coli RNA polymerase (P0A8V2 whole entry): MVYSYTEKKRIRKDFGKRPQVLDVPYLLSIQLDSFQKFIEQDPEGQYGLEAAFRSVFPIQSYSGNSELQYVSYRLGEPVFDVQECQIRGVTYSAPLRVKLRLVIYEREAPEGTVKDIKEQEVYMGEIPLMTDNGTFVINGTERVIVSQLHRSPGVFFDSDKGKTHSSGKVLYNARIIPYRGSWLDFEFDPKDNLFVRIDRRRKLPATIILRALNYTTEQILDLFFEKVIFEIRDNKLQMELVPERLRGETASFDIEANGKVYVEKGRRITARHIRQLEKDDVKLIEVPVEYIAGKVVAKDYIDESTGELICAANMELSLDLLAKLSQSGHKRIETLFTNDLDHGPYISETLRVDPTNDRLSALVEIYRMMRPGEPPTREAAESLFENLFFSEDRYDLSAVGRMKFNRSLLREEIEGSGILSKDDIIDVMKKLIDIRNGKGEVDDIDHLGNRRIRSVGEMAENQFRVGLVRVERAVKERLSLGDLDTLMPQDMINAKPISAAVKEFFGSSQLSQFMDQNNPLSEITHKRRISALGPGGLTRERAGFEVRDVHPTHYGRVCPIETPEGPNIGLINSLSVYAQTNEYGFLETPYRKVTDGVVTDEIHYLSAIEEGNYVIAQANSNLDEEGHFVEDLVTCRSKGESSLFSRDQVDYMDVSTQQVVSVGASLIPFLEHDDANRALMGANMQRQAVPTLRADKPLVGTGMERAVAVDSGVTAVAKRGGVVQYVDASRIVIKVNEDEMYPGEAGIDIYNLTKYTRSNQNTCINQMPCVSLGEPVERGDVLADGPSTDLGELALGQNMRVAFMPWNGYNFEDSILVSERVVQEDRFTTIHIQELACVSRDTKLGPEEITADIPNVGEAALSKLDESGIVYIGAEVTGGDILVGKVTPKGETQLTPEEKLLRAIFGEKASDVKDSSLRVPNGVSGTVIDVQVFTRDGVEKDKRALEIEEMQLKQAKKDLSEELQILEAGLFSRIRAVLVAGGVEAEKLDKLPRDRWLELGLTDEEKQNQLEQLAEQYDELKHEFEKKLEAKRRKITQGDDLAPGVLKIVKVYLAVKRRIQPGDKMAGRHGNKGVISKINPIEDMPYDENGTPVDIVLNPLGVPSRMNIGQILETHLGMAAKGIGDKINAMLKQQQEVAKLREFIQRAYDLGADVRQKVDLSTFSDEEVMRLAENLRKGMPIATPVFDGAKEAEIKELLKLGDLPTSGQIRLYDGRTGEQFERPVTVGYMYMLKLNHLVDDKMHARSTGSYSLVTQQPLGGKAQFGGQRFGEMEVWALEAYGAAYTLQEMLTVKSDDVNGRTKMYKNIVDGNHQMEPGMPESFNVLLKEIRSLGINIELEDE
Chain of E. coli RNA polymerase (P0A8T7 whole entry): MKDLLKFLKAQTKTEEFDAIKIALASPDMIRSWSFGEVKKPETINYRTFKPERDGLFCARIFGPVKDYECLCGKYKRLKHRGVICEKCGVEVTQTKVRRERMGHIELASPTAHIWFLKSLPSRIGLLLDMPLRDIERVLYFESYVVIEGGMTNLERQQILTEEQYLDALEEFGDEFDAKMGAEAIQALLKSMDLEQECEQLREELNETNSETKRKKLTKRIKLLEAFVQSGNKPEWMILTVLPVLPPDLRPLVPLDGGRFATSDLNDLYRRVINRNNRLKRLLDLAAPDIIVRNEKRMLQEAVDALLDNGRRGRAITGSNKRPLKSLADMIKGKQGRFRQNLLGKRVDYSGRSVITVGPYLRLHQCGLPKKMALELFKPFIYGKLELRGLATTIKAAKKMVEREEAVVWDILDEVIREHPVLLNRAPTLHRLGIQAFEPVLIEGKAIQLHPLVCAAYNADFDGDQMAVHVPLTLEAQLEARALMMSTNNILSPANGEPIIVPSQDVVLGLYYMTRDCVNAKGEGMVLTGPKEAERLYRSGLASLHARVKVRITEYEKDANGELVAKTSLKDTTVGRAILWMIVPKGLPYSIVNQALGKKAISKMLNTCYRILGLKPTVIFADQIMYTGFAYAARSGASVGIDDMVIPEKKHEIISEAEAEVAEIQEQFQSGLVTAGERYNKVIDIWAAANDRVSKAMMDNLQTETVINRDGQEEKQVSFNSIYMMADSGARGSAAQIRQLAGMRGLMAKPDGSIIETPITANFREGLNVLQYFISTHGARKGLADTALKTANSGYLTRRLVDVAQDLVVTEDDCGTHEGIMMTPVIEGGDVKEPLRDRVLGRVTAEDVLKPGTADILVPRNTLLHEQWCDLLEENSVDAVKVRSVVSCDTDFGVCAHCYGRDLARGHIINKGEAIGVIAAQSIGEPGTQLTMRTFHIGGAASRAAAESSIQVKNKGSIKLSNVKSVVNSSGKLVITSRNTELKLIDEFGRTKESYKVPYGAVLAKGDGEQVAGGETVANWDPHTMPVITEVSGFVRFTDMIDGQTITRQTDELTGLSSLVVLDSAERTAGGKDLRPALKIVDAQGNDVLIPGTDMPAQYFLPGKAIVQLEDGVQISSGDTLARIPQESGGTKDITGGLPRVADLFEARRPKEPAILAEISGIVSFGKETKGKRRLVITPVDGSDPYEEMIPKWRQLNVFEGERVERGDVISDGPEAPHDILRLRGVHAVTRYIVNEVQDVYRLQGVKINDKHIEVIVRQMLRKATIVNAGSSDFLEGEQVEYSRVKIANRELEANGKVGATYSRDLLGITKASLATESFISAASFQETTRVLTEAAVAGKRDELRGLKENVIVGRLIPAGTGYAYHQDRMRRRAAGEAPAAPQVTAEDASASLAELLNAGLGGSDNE
Chain of E. coli RNA polymerase (P0A7Z4 whole entry partner): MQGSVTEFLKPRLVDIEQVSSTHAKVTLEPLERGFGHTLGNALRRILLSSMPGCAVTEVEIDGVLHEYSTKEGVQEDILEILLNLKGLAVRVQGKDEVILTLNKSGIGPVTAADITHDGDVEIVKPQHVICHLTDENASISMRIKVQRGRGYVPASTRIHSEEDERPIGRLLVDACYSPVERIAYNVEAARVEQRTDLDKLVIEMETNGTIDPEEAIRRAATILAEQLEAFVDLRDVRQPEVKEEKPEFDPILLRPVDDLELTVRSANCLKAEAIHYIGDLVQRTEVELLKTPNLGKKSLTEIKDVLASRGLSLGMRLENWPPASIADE
Chain of E. coli RNA polymerase (P0A800 whole entry partner): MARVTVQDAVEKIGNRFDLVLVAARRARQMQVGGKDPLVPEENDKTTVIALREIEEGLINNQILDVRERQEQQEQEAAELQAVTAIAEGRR

CCC/C(C)=C/C=C(\C)C(=O)c1c(O)cc(C(C)CC/C=C/NC(=O)OC)oc1=O (racemic) [MYXO A, (±)-Myxopyronin A]
Relative potency in the in vitro transcription assay using E. coli RNA polymerase (E. coli RNA polymerase): equally potent as the natural product mixtures
IC50 (E. coli RNA polymerase): 7.19 µM
MBC (S. aureus [1]; read-out: MBC S. aureus): 15 µg/mL (≈ 35.9 µM)
MBC (S. aureus [1]; [7]): 15 µg/mL (≈ 35.9 µM)
MBC (E. coli [2]; read-out: MBC E. coli*): > 30 µg/mL
MBC (E. coli [2]; [8]): > 30 µg/mL
IC50 (S. aureus RNAP): 24 µM
IC50 (Human RNAP): > 144 µM
MIC (E. coli [3]; [9]): 8 µg/mL (≈ 19.2 µM)

CCCC/C(C)=C/C=C(\C)C(=O)c1c(O)cc(C(C)CC/C=C/NC(=O)OC)oc1=O (racemic) [MYXO B, (±)-myxopyronin B]
MIC (E. faecalis; E. faecalis Pen-S, Vanco-S): 16 µg/mL (≈ 37.1 µM)
MIC (E. faecalis; Enterococcus faecalis, ATCC29212, E. faecalis ATCC29212, read-out: MIC): 16 µg/mL (≈ 37.1 µM)
MIC (E. faecalis; Enterococcus faecalis, E. faecalis Pen-R, Vanco-S, read-out: MIC): 8 µg/mL (≈ 18.5 µM)
MIC (E. faecalis; Enterococcus faecalis, E. faecalis Pen-S, Vanco-S, read-out: MIC): 32 µg/mL (≈ 74.2 µM)
Relative potency in the in vitro transcription assay using E. coli RNA polymerase (E. coli RNA polymerase): more potent molecule than A
IC50 (E. coli RNA polymerase): 1.85 µM
MBC (S. aureus [1]; read-out: MBC S. aureus): 0.4 µg/mL (≈ 0.927 µM)
MBC (S. aureus [1]; [7]): 0.4 µg/mL (≈ 0.927 µM)
MIC (H. influenzae; ATCC49247, H. influenzae ATCC49247): 2 µg/mL (≈ 4.63 µM)
MIC (H. influenzae; H. influenzae non-typable): 8 µg/mL (≈ 18.5 µM)
MIC (K. pneumoniae): > 64 µg/mL
MIC (M. luteus): 8 µg/mL (≈ 18.5 µM)
MIC (E. faecium; Vanco-R): > 64 µg/mL
MIC (E. faecium; Vanco-S): > 64 µg/mL
MIC (E. faecium; Enterococcus faecium, Vanco-R, read-out: MIC): 64 µg/mL (≈ 148 µM)
MIC (E. faecium; Enterococcus faecium, Vanco-S, read-out: MIC): 64 µg/mL (≈ 148 µM)
MBC (E. coli [2]; read-out: MBC E. coli*): 0.2 µg/mL (≈ 0.463 µM)
MBC (E. coli [2]; [8]): > 100 µg/mL
MIC (E. cloacae): > 64 µg/mL
IC50 (S. aureus RNAP): 1.39 µM
MIC (S. epidermidis; CC-R): 1 µg/mL (≈ 2.32 µM)
MIC (S. epidermidis; CC-S): 4 µg/mL (≈ 9.27 µM)
IC50 (Human RNAP): > 139 µM
MIC (E. coli [3]; ATCC25922, Table III, E. coli ATCC25922, read-out: MIC): > 64 µg/mL
MIC (E. coli [3]; Table III, E. coli parent (non-permeable), read-out: MIC): > 64 µg/mL
MIC (E. coli [3]; Table III, E. coli permeable, read-out: MIC): 1 µg/mL (≈ 2.32 µM)
MIC (E. coli [3]; [9]): 0.4 µg/mL (≈ 0.927 µM)
MIC (E. coli [3]; Table II, read-out: MIC E. coli): > 100 µg/mL
MIC (S. pneumonia; S. pneumonia ATCC49619): 8 µg/mL (≈ 18.5 µM)
MIC (S. pneumonia; S. pneumonia Pen I (MIC 0.12)): 8 µg/mL (≈ 18.5 µM)
MIC (S. pneumonia; S. pneumonia Pen I (MIC 0.25)): 8 µg/mL (≈ 18.5 µM)
MIC (S. pneumonia; S. pneumonia Pen I (MIC 1.0)): 8 µg/mL (≈ 18.5 µM)
MIC (S. pneumonia; S. pneumonia Pen R (MIC 2.0)): 16 µg/mL (≈ 37.1 µM)
MIC (S. pneumonia; S. pneumonia Pen R (MIC 4.0)): 8 µg/mL (≈ 18.5 µM)
MIC (S. pneumonia; S. pneumonia Pen S (MIC <0.06)): 8 µg/mL (≈ 18.5 µM)
MIC (S. aureus [4]; S. aureus MRSA, E-S, CC-S): 1 µg/mL (≈ 2.32 µM)
MIC (S. aureus [4]; Staphylococcus aureus, ATCC25923, S. aureus ATCC25923, read-out: MIC): 1 µg/mL (≈ 2.32 µM)
MIC (S. aureus [4]; Staphylococcus aureus, ATCC29213, S. aureus ATCC29213, read-out: MIC): 1 µg/mL (≈ 2.32 µM)
MIC (S. aureus [4]; Staphylococcus aureus, MRSA, S. aureus MRSA, E-R, CC-S, read-out: MIC): 1 µg/mL (≈ 2.32 µM)
MIC (S. aureus [4]; Staphylococcus aureus, Table II, read-out: MIC S. aureus): 0.4 µg/mL (≈ 0.927 µM)
MIC (S. aureus [4]; Staphylococcus aureus, Table II, rifampicin-resistant S. aureus, read-out: MIC rifR-S. aureus): 0.2 µg/mL (≈ 0.463 µM)
Fold more potent cell-based (growth inhibitory) activity than myxopyronin A (S. aureus [4]; up to, over the bacteria of Table II): up to 75 fold
MIC (P. aeruginosa; P. aeruginosa ATCC27853): > 64 µg/mL
MIC (P. aeruginosa; P. aeruginosa, strain not named): > 64 µg/mL
MIC (M. catarrhalis; M. catarrhalis beta lactamase negative): 0.5 µg/mL (≈ 1.16 µM)
MIC (M. catarrhalis; M. catarrhalis beta lactamase positive): 1 µg/mL (≈ 2.32 µM)

CO[C@H]1/C=C/O[C@@]2(C)Oc3c(C)c(O)c4c(O)c(c(/C=N/N5CCN(C)CC5)c(O)c4c3C2=O)NC(=O)/C(C)=C\C=C\[C@H](C)[C@H](O)[C@@H](C)[C@@H](O)[C@@H](C)[C@H](OC(C)=O)[C@@H]1C [rifampicin]
MIC ([5]; read-out: MIC against resistant strains, background statement b17): > 10 µM
MIC ([5]; read-out: MIC against rifampicin resistant strains, Example 11, b337): > 100 µM
MIC ([5]; read-out: MIC against susceptible strains, Example 11, b337): 10 µM (≈ 8.23 µg/mL)
MIC ([5]; read-out: MIC against susceptible strains, background statement b17): ~0.01 µM (≈ 0.00823 µg/mL)
Growth of myxopyronin resistant S. aureus strain in the presence of the drug [6]: inhibits growth
Growth of rifampicin resistant S. aureus strain in the presence of the drug [6]: continues to grow
Growth of streptolydigin-resistant S. aureus strain in the presence of the drug [6]: inhibited

CNC(=O)[C@@H](C)[C@H]1C(=O)/C(=C(O)/C=C/C(C)=C/[C@@H](C)[C@H]2O[C@@]3(C)O[C@H](C=C[C@@]34CO4)[C@@H]2C)C(=O)N1[C@@H]1CC[C@H](O)[C@H](C)O1 [streptolydigin]
Growth of myxopyronin resistant S. aureus strain in the presence of the drug [6]: inhibits growth
Growth of rifampicin resistant S. aureus strain in the presence of the drug [6]: inhibits growth
Growth of streptolydigin-resistant S. aureus strain in the presence of the drug [6]: continues to grow
